This is an account of results in ChEMBL document CHEMBL1154257, “Prediction of telomerase inhibitory activity for acridinic derivatives based on chemical structure” (Eur J Med Chem, 2009).

Molecules are shown by their SMILES.

Chain of Telomerase reverse transcriptase (O14746 whole entry): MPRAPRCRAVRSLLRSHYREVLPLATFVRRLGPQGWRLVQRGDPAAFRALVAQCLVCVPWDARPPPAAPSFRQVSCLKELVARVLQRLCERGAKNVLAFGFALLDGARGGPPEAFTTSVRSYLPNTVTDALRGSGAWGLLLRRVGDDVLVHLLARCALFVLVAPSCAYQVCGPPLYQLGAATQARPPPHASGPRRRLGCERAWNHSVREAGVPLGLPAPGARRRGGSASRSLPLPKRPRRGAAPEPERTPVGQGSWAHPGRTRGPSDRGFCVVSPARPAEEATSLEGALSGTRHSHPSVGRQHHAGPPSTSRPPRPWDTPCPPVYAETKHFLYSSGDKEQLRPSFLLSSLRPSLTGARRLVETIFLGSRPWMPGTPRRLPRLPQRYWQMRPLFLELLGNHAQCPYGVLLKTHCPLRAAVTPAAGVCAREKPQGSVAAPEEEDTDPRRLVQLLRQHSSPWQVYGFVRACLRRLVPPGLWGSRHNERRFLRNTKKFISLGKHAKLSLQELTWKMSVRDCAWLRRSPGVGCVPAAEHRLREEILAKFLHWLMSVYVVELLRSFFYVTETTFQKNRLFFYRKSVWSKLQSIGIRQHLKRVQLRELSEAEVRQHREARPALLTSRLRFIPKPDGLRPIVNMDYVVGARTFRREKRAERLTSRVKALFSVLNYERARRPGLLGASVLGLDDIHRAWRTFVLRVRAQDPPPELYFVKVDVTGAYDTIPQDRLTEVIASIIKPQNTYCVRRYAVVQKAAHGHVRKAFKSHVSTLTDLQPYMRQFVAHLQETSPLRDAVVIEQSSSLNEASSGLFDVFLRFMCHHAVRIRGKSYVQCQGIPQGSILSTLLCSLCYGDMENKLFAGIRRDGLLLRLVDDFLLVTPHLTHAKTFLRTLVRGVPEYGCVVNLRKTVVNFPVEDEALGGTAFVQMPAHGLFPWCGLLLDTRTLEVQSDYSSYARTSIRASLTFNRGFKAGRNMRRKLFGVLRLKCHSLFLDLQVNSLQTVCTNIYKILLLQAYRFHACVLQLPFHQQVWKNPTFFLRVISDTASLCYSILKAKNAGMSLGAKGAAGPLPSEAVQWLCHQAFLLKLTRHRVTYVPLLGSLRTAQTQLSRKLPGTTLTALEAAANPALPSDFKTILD

The experiment addresses Telomerase reverse transcriptase (Homo sapiens, UniProt O14746). As to the kind of experiment: Inhibition of telomerase in human A2780 cells by TRAP assay. In kind it is cell-based.
On to `CC1(C)CC2CN(CCC(=O)Nc3ccc4cc5ccc(NC(=O)CCN6CC7CC(C)(C)CC(C)(C7)C6)cc5nc4c3)CC(C)(C2)C1`, for which the IC50 was above 50000 nM.
The value for `CN(C)CCNc1c2cc(NC(=O)CCN3CCCC3)ccc2nc2ccc(NC(=O)CCN3CCCC3)cc12` was 570 nM; that for `O=C(CCN1CCCC1)Nc1ccc2c(NC3CCCCC3)c3cc(NC(=O)CCN4CCCC4)ccc3nc2c1` was 210 nM; that for `CN(C)CCCNc1c2ccc(NC(=O)CCN3CCCC3)cc2nc2ccc(NC(=O)CCN3CCCC3)cc12` was 80 nM.
Consider `CN(C)c1ccc(Nc2c3ccc(NC(=O)CCN4CCCC4)cc3nc3ccc(NC(=O)CCN4CCCC4)cc23)cc1`, for which half-maximal inhibition (IC50) required 170 nM.
`O=C(CCN1CCCC1)Nc1ccc2nc3ccc(NC(=O)CCN4CCCC4)cc3c(Nc3ccccc3)c2c1` came in with an IC50 of 1290 nM.
The value for `CN(C)c1cccc(Nc2c3cc(NC(=O)CCN4CCCC4)ccc3nc3ccc(NC(=O)CCN4CCCC4)cc23)c1` was 600 nM; that for `Nc1cccc(Nc2c3cc(NC(=O)CCN4CCCC4)ccc3nc3ccc(NC(=O)CCN4CCCC4)cc23)c1` was 1090 nM.
The value for `CN(C)CCNc1c2ccc(NC(=O)CCN3CCCC3)cc2nc2ccc(NC(=O)CCN3CCCC3)cc12` was 270 nM.
The value for `O=C(CCN1CCCC1)Nc1ccc2c(Nc3ccccc3)c3cc(NC(=O)CCN4CCCC4)ccc3nc2c1` was 1330 nM.
For `COc1ccc(Nc2c3cc(NC(=O)CCN4CCCC4)ccc3nc3ccc(NC(=O)CCN4CCCC4)cc23)cc1`, half-maximal inhibition (IC50) required 460 nM.
Consider `Nc1ccc(Nc2c3cc(NC(=O)CCN4CCCC4)ccc3nc3ccc(NC(=O)CCN4CCCC4)cc23)cc1`, for which the IC50 was 200 nM.
The compound `O=C(CCCCC(=O)N1CCCC1)Nc1ccc(Nc2c3ccc(NC(=O)CCN4CCCC4)cc3nc3cc(NC(=O)CCN4CCCC4)ccc23)cc1` displayed a 50% inhibitory concentration (IC50) of 318 nM.
In the case of `CCN(CC)CCCCCCNC(=O)CCCCC(=O)Nc1ccc(Nc2c3ccc(NC(=O)CCN4CCCC4)cc3nc3cc(NC(=O)CCN4CCCC4)ccc23)cc1`, the IC50 is 80 nM.
The value for `CC1CCCCN1CCC(=O)Nc1ccc2c(=O)c3ccc(NC(=O)CCN4CCCCC4C)cc3[nH]c2c1` (stereo unspecified) was 2300 nM; that for `CCN(CC)CCNC(=O)CCCCC(=O)Nc1ccc(Nc2c3ccc(NC(=O)CCN4CCCC4)cc3nc3cc(NC(=O)CCN4CCCC4)ccc23)cc1` was 98 nM; that for `CC1CCN(CCC(=O)Nc2ccc3c(=O)c4ccc(NC(=O)CCN5CCC(C)CC5)cc4[nH]c3c2)CC1` was 1700 nM.
Regarding `CCC1CCCCN1CCC(=O)Nc1ccc2c(=O)c3ccc(NC(=O)CCN4CCCCC4CC)cc3[nH]c2c1` (stereo unspecified), half-maximal inhibition (IC50) required 2300 nM.
Then `O=C(CCN1CCCC1)Nc1ccc2c(=O)c3ccc(NC(=O)CCN4CCCC4)cc3[nH]c2c1`, with 8100 nM; and `O=C(CCN1CCCCC1)Nc1ccc2c(O)c3cc(NC(=O)CCN4CCCCC4)ccc3nc2c1`, with 400 nM.
In the case of `O=C(CCN1CCC(O)CC1)Nc1ccc2c(O)c3cc(NC(=O)CCN4CCC(O)CC4)ccc3nc2c1`, the IC50 was determined as 200 nM.
The value for `O=C(CCN1CCCCC1)Nc1ccc2nc3ccc(NC(=O)CCN4CCCCC4)cc3c(O)c2c1` was 1900 nM; that for `CC1CCCCN1CCC(=O)Nc1ccc2nc3ccc(NC(=O)CCN4CCCCC4C)cc3c(O)c2c1` (stereo unspecified) was 1500 nM; that for `CCN(CC)CCC(=O)Nc1ccc2c(O)c3cc(NC(=O)CCN(CC)CC)ccc3nc2c1` was 700 nM.
On to `CN(C)CCC(=O)Nc1ccc2nc3ccc(NC(=O)CCN(C)C)cc3c(O)c2c1`, for which the IC50 was 600 nM.
As to `O=C(CCN1CCCC1)Nc1ccc2nc3ccc(NC(=O)CCN4CCCC4)cc3c(O)c2c1`, the IC50 was found to be 5800 nM.
The value for `Nc1ccc(Nc2c3ccc(NC(=O)CCN4CCCC4)cc3nc3cc(NC(=O)CCN4CCCC4)ccc23)cc1` was 74 nM; that for `CN(C)c1ccc(Nc2c3ccc(NC(=O)CCN4CCCC4)cc3nc3cc(NC(=O)CCN4CCCC4)ccc23)cc1` was 100 nM; that for `CN(C)c1ccc(Nc2c3cc(NC(=O)CCN4CCCC4)ccc3nc3ccc(NC(=O)CCN4CCCC4)cc23)cc1` was 500 nM.
Compound `Nc1cccc(Nc2c3ccc(NC(=O)CCN4CCCC4)cc3nc3ccc(NC(=O)CCN4CCCC4)cc23)c1` gave an IC50 of 210 nM.
The value for `COc1cccc(Nc2c3cc(NC(=O)CCN4CCCC4)ccc3nc3ccc(NC(=O)CCN4CCCC4)cc23)c1` was 2730 nM; that for `O=C(CCN1CCCC1)Nc1ccc2nc3ccc(NC(=O)CCN4CCCC4)cc3c(Nc3ccccc3O)c2c1` was 1030 nM.
`Nc1ccccc1Nc1c2ccc(NC(=O)CCN3CCCC3)cc2nc2ccc(NC(=O)CCN3CCCC3)cc12`: the midpoint of inhibition, the IC50, lay at 110 nM.
In the case of `Nc1ccccc1Nc1c2cc(NC(=O)CCN3CCCC3)ccc2nc2ccc(NC(=O)CCN3CCCC3)cc12`, the IC50 came to 170 nM.
Compound `CC1CCN(CCC(=O)Nc2ccc3c(O)c4cc(NC(=O)CCN5CCC(C)CC5)ccc4nc3c2)CC1` registered a half-maximal inhibitory concentration (IC50) of 200 nM.
Compound `CCN(CC)CCC(=O)Nc1ccc2c(=O)c3ccc(NC(=O)CCN(CC)CC)cc3[nH]c2c1` registered an IC50 of 2700 nM.
Then `O=C(CCN1CCC(O)CC1)Nc1ccc2nc3ccc(NC(=O)CCN4CCC(O)CC4)cc3c(O)c2c1`, with 2300 nM; and `O=C(CCN1CCC(O)CC1)Nc1ccc2c(O)c3ccc(NC(=O)CCN4CCC(O)CC4)cc3nc2c1`, with 1700 nM.
Then `C[N+]1(CCC(=O)Nc2ccc3nc4ccc(NC(=O)CC[N+]5(C)CCNCC5)cc4c(O)c3c2)CCNCC1`, with 1900 nM; and `O=C(CCN1CCCCC1CCO)Nc1ccc2c(=O)c3cc(NC(=O)CCN4CCCCC4CCO)ccc3[nH]c2c1` (stereo unspecified), with 200 nM; and `O=C(CC[N+]1([O-])CCCCC1)Nc1ccc2c(=O)c3ccc(NC(=O)CC[N+]4([O-])CCCCC4)cc3[nH]c2c1`, with 49000 nM.
